Like-named read-outs stand apart in the source and are kept apart here.
What was measured:
Assay type in all cases: biochemical
Cathepsin S = Cathepsin S (Homo sapiens, UniProt P25774); assay: Cathepsin S inhibition, fluorogenic peptide substrate kinetic assay;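 note: cleavage rate of a coumarin-labelled peptide substrate (50 µM) read as fluorescence increase at Ex 380 nm and Em 450 nm, relative to inhibitor-free control reactions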
Cathepsin K = target: T1, Cathepsin K (Homo sapiens, UniProt P43235); assay: Cathepsin K inhibition, fluorogenic peptide substrate kinetic assay (selectivity); details: ratio of cathepsin K inhibition constant to cathepsin S inhibition constant
T1 sequence (P43235 115-329): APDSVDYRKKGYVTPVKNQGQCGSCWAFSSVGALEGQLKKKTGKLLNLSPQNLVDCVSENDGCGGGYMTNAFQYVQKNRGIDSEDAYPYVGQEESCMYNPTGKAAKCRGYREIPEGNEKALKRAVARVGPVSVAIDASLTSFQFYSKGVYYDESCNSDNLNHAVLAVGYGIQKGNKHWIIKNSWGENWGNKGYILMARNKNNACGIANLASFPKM

Cathepsin L = Cathepsin L (Homo sapiens, UniProt P07711); assay: Cathepsin L inhibition, fluorogenic peptide substrate kinetic assay (selectivity); details: ratio of cathepsin L inhibition constant to cathepsin S inhibition constant
Chain of Cathepsin L (P07711 114-333, species assumed): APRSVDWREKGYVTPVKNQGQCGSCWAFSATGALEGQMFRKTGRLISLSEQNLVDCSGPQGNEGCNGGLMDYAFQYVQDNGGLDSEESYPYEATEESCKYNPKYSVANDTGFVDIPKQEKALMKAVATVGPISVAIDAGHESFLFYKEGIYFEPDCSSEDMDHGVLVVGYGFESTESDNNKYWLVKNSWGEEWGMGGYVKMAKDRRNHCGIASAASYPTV

Cathepsin B = Cathepsin B (Homo sapiens, UniProt P07858); assay: Cathepsin B inhibition, fluorogenic peptide substrate kinetic assay (selectivity); details: ratio of cathepsin B inhibition constant to cathepsin S inhibition constant;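 note: value is the cathepsin B inhibition constant divided by the cathepsin S one, each from kinetic fluorescence readings (ex 380 nm, em 450 nm) of a 10 µM coumarin peptide substrate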
[1] = Cathepsin S inhibition constant, pH5.5, 20 minutes preincubation at room temperature, read-out: Ki Cat. S

Chain of Cathepsin S (P25774 115-331, species assumed): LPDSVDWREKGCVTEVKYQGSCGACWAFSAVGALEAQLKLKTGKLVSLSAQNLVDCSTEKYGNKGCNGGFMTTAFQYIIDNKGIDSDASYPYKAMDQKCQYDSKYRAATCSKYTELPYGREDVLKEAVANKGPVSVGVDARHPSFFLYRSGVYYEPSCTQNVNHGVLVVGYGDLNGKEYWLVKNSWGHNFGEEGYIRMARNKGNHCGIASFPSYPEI

Row | Compound | Ki (Cathepsin S; [1]) [nM] | Selectivity for Cat. S over Cat. K (Cathepsin K) | Selectivity for Cat. S over Cat. L (Cathepsin L) | Selectivity for Cat. S over Cat. B (Cathepsin B) | Ki (Cathepsin S) [nM]
1 | CC(=O)N1CCN(C(=O)C[C@@H](CC2CCCCC2)C(=O)N[C@@H](C)CNc2ccc(OC(F)(F)F)cc2)CC1 [Example 52, 4-(4-Acetyl-piperazin-1-yl)-2-(R)-cyclohexylmethyl-N-[1-(S)-methyl-2-(4-trifluoromethoxy-phenylamino)-ethyl]-4-oxo-butyramide] | 100 to 1000 | + (+, >10) | ++ (++, >100) | ++ (++, >100) | –
2 | CCC1(O)CCCC(C[C@H](CC(=O)N2CCOCC2)C(=O)N[C@@H](C)CNc2ccc(OC(F)(F)F)cc2)C1 (stereo partly drawn) [Example 59, 2-(R)-(3-Ethyl-3-hydroxy-cyclohexylmethyl)-N-[1-(S)-methyl-2-(4-trifluoromethoxy-phenylamino)-ethyl]-4-morpholin-4-yl-4-oxo-butyramide] | 1000 to 10000 | + (+, >10) | + (+, >10) | + (+, >10) | –
3 | C[C@@H](CNc1ccc(OC(F)(F)F)cc1)NC(=O)[C@@H](CC(=O)N1CCSCC1)CC1CCCCC1 [Example 51, 2-(R)-Cyclohexylmethyl-N-[1-(S)-methyl-2-(4-trifluoromethoxy-phenylamino)-ethyl]-4-oxo-4-thiomorpholin-4-yl-butyramide] | < 100 | ++ (++, >100) | + (+, >10) | +++ (+++, >1000) | –
4 | O=C(NCCNc1ccc(OC(F)(F)F)cc1)[C@@H](CC(=O)N1CCOCC1)CC1CCCCC1 [Example 13, 2-(R)-Cyclohexylmethyl-4-morpholin-4-yl-4-oxo-N-[2-(4-trifluoromethoxy-phenylamino)-ethyl]-butyramide] | – | ++ (++, >100) | ++ (++, >100) | ++ (++, >100) | 100 to 1000
5 | CC[C@@H](CN1CC(C)(C)c2cc(F)ccc21)NC(=O)O[C@@H](CC1CCCCC1)C(=O)N1CCOCC1 [Example 92, (S,S)-[1-(5-Fluoro-3,3-dimethyl-2,3-dihydro-indol-1-yl-methyl)-propyl]-carbamic acid 1-cyclohexylmethyl-2-morpholin-4-yl-2-oxo-ethyl ester] | < 100 | +++ (+++, >1000) | +++ (+++, >1000) | +++ (+++, >1000) | –
6 | CC(C)[C@@H](CN1CC(C)(C)c2cc(F)ccc21)NC(=O)O[C@@H](CS(=O)(=O)Cc1ccccc1)C(=O)N1CCOCC1 [Example 110, [1-(S)-(5-Fluoro-3,3-dimethyl-2,3-dihydro-indol-1-ylmethyl)-2-methyl-propyl]-carbamic acid 2-morpholin-4-yl-2-oxo-1-(R)-phenylmethanesulfonylmethyl-ethyl ester] | 1000 to 10000 | + (+, >10) | + (+, >10) | + (+, >10) | –
7 | CC(C)[C@@H](CN1CC(C)(C)c2cc(F)ccc21)NC(=O)O[C@H](C(=O)N1CCOCC1)C1CCCCC1 [Example 111, [1-(S)-(5-Fluoro-3,3-dimethyl-2,3-dihydro-indol-1-ylmethyl)-2-methyl-propyl]-carbamic acid 1-(S)-cyclohexyl-2-morpholin-4-yl-2-oxo-ethyl ester] | < 100 | + (+, >10) | ++ (++, >100) | +++ (+++, >1000) | –
8 | O=C(NCCNc1ccc(F)cc1)[C@@H](CC(=O)N1CCOCC1)CC1CCCCC1 [Example 6, 2-(R)-Cyclohexylmethyl-N-[2-(4-fluoro-phenylamino)-ethyl]-4-morpholin-4-yl-4-oxo-butyramide] | – | + (+, >10) | + (+, >10) | + (+, >10) | 1000 to 10000
9 | C[C@@H](CNc1ccc(OC(F)(F)F)cc1)NC(=O)[C@H](CCC1CCCCC1)CC(=O)N1CCOCC1 [Example 21, 2-(R)-(2-Cyclohexyl-ethyl)-N-[1-(S)-methyl-2-(4-trifluoromethoxy-phenylamino)-ethyl]-4-morpholin-4-yl-4-oxo-butyramide] | – | ++ (++, >100) | +++ (+++, >1000) | +++ (+++, >1000) | < 100
10 | O=C(N[C@H](CNc1ccc(OC(F)(F)F)cc1)c1ccccc1)[C@@H](CC(=O)N1CCOCC1)CC1CCCCC1 [Example 45, 2-(R)-Cyclohexylmethyl-4-morpholin-4-yl-4-oxo-N-[1-(S)-phenyl-2-(4-trifluoromethoxy-phenylamino)-ethyl]-butyramide] | – | ++ (++, >100) | ++ (++, >100) | +++ (+++, >1000) | < 100
11 | O=C(NCCNc1ccc(F)cc1)O[C@@H](CC1CCCCC1)C(=O)N1CCOCC1 [Example 5, [2-(4-Fluoro-phenylamino)-ethyl]-carbamic acid 1-(S)-cyclohexylmethyl-2-morpholin-4-yl-2-oxo-ethyl ester] | 1000 to 10000 | + (+, >10) | + (+, >10) | + (+, >10) | –
12 | Cc1cc(NC[C@H](C)NC(=O)[C@H](CC2CCCCC2)NC(=O)N2CCOCC2)no1 [Example 77, Morpholine-4-carboxylic acid {2-cyclohexyl-1-(S)-[1-(S)-methyl-2-(5-methyl-isoxazol-3-ylamino)-ethylcarbamoyl]-ethyl}-amide] | 100 to 1000 | + (+, >10) | + (+, >10) | ++ (++, >100) | –
13 | C[C@@H](CNc1ccc(OC(F)(F)F)cc1)NC(=O)[C@@H](CC(=O)N1CCOCC1)CC1CCCCC1 [Example 14, 2-(R)-Cyclohexylmethyl-N-[1-(S)-methyl-2-(4-trifluoromethoxy-phenylamino)-ethyl]-4-morpholin-4-yl-4-oxo-butyramide] | – | ++ (++, >100) | ++ (++, >100) | +++ (+++, >1000) | < 100
14 | C[C@@H](CNc1ccc(OC(F)(F)F)cc1)NC(=O)[C@@H](CC(=O)N1CCOCC1)CC(C)(C)C [Example 26, 4,4-Dimethyl-2-(R)-(2-morpholin-4-yl-2-oxo-ethyl)-pentanoic acid [1-(S)-methyl-2-(4-trifluoromethoxy-phenylamino)-ethyl]-amide] | – | – | ++ (++, >100) | ++ (++, >100) | 100 to 1000
15 | CC(C)[C@@H](CN1CC(C)(C)c2cc(F)ccc21)NC(=O)OC(C(=O)N1CCOCC1)c1ccccc1 (mixture of isomers) [Example 109, [1-(S)-(5-Fluoro-3,3-dimethyl-2,3-dihydro-indol-1-ylmethyl)-2-methyl-propyl]-carbamic acid 2-morpholin-4-yl-2-oxo-1-(R,S)-phenyl-ethyl ester] | 1000 to 10000 | – | + (+, >10) | + (+, >10) | –
16 | CC(C)[C@@H](CNc1ccc(OC(F)(F)F)cc1)NC(=O)[C@H](CCc1ccccc1)CC(=O)N1CCOCC1 [Example 32, N-{2-Methyl-1-(S)-[(4-trifluoromethoxy-phenylamino)-methyl]-propyl}-4-morpholin-4-yl-4-oxo-2-(R)-phenethyl-butyramide] | – | – | + (+, >10) | +++ (+++, >1000) | < 100
17 | C=CC[C@H](CC(=O)N1CCOCC1)C(=O)N[C@H](CNc1ccc(OC(F)(F)F)cc1)C(C)C [Example 47, 2-(R)-(2-Morpholin-4-yl-2-oxo-ethyl)-pent-4-enoic acid {2-methyl-1-(S)-[(4-trifluoromethoxy-phenylamino)-methyl]-propyl}-amide] | 100 to 1000 | – | + (+, >10) | + (+, >10) | –
18 | CC(C)[C@@H](CNc1ccc(OC(F)(F)F)cc1)NC(=O)[C@H](CC(=O)N1CCOCC1)c1ccc(S(C)(=O)=O)cc1 [Example 71, 2-(R)-(4-methanesulfonyl-phenyl)-N-{2-methyl-1-(S)-[(4-trifluoromethoxy-phenylamino)-methyl]-propyl}-4-morpholin-4-yl-4-oxo-butyramide] | 1000 to 10000 | – | ++ (++, >100) | + (+, >10) | –
